Assay results reported in patent US20150224089A1, “COMBINATIONS OF IKKi/TBK1 INHIBITORS WITH BETA ADRENERGIC AGONISTS OR SYMPATHETIC NERVOUS SYSTEM ACTIVATORS” (THE REGENTS OF THE UNIVERSITY OF MICHIGAN, priority 2014, published 2015).
“Also recorded” adds a separate entry of the source.

Assays:
3T3-L1 adipocytes [1] = assay: cAMP levels in 3T3-L1 adipocytes; type: cell-based
Method: (§1) (A) Glycerol release from 3T3-L1 adipocytes treated with or without different concentrations of TNFα as indicated for 24 hr followed by treatment with or without 10 μM ISO or 50 μM FSK. (B) cAMP levels from 3T3-L1 adipocytes treated with or without 100 ng/ml TNFα for 24 hr followed by treatment with or without 10 μM ISO or 50 μM FSK in the presence or absence of pretreatment of 50 μM Amlexanox (Am). (C) cAMP levels from 3T3-L1 adipocytes treated with or without 100 ng/ml TNFα for 24 hr followed by treatment with or without 50 μM FSK in the presence or absence of pretreatment of 1 μM CAY10576 (CAY). (D) Immunoblots of whole cell lysates from 3T3-L1 adipocytes treated with or without different concentrations of TNFα as same as FIG. 2A for 24 hr followed by treatment with or without 10 μM ISO or 50 μM FSK. Results were replicated in multiple experiments. ‘[’ indicates total HSL. ‘n.s.’ represents non-specific band. Arrow indicates CGI-58. (E) Immunoblots of whole cell lysates from 3T3-L1 adipocytes treated with or without 50 ng/ml TNFα or 100 μg/ml poly (I:C) for 24 hr followed by treatment with or without 10 μM ISO for 15 min in the presence or absence of pretreatment with increasing concentrations (0, 10, 50, and 200 μM) of amlexanox for 30 min.
(A) cAMP levels from 3T3-L1 adipocytes expressing empty vector, Flag-IKKε, or Flag-TBK1 treated with or without 50 μM FSK, 250 μM IBMX, or together for 15 min. (B) cAMP levels from 3T3-L1 adipocytes expressing empty vector, Flag-IKKε, or Flag-TBK1 treated with or without 10 μM ISO or 50 μM FSK together with or without 10 μM Zardaverine (Zarda) for 15 min. (C) 32P phospho-image of in vitro kinase reaction using either immunoprecipitated HA-PDE3B from HEK293T cells or 1 μg MBP (myelin basic protein) as a substrate with recombinant kinases as indicated. (D) Immunoblots of immunoprecipitation with anti-HA antibodies followed by treatment with or without CIP (top panel) and whole cell lysates (bottom panel) from Cos-1 cells co-expressing HA-PDE3B with Flag-IKKε/TBK1 or Flag-IKKε/TBK1 K38A. D.E. stands for dark exposure and L.E. stands for light exposure. (E) Immunoblots of GST-14-3-3 pulldown from HEK293T cells co-expressing HA-PDE3B with Flag-TBK1 or Flag-TBK1 K38A.
Obesity is accompanied by infiltration of proinflammatory macrophages into adipose tissue; these cells secrete inflammatory cytokines, such as TNFα, which generate insulin resistance by stimulating catabolic pathways (Hotamisligil, 2006; Lumeng et al., 2007; Ye and Keller, 2010; Ouchi et al., 2011; herein incorporated by reference in their entireties). Although TNFα is known to increase lipolysis in adipocytes (Zhang et al., 2002; Souza et al., 2003; Green et al., 2004; Plomgaard et al., 2008; herein incorporated by reference in their entireties), there is also evidence of a counterinflammatory response in obesity that may serve to repress energy expenditure (Gregor and Hotamisligil, 2011; Saltiel, 2012; Calay and Hotamisligil, 2013; Reilly et al., 2013; herein incorporated by reference in their entireties). Experiments were conducted during development of embodiments of the present invention using TNFα to model the inflammatory milieu of obese adipose tissue in cell culture to determine whether the cytokine might also regulate β-adrenergic signaling in this context. While short-term treatment with TNFα augmented the increase in cAMP produced by forskolin treatment, this effect declined after 12 hr. […] Thus, the catabolic effects of the proinflammatory cytokine TNFα in adipocytes are transient and followed by an inhibitory phase.
Treatment of 3T3-L1 adipocytes with TNFα for 24 hr induced the expression of IKKε and increased TBK1 phosphorylation at the active site in a manner that was dependent on the activity of IKKβ and the NFκB pathway (Reilly et al., 2013; herein incorporated by reference in its entirety). […]

3T3-L1 adipocytes [2] = assay: Immunoblots of β-adrenergic/PKA signaling (HSL, perilipin, PKA substrate, p38 phosphorylation) in 3T3-L1 adipocytes; type: cell-based
Method: as §1, with “Results were replicated in multiple experiments. ‘[’ indicates total HSL. ‘n.s.’ represents non-specific band.” left out
Experiments were conducted during development of embodiments of the present invention to determine whether the repression of β-adrenergic sensitivity produced by longer-term treatment with TNFα is due to increased activity of the noncanonical IKKs.

Row | Compound | rescue of TNFα-decreased isoproterenol- and forskolin-stimulated cAMP production (3T3-L1 adipocytes [1]; preincubation with 50 μM amlexanox, 100 ng/ml TNFα 24 hr, 10 μM ISO or 50 μM FSK) | effect on TNFα inhibition of isoproterenol-stimulated β-adrenergic signaling (phospho-PKA substrate, phospho-HSL, phospho-perilipin) (3T3-L1 adipocytes [2]; amlexanox pretreatment 0, 10, 50, 200 μM for 30 min, 50 ng/ml TNFα 24 hr, 10 μM ISO 15 min) | phosphorylation of p38 in response to isoproterenol (3T3-L1 adipocytes [2]; amlexanox pretreatment 0, 10, 50, 200 μM, dose-dependent) | effect on Poly (I:C) inhibition of sensitivity to isoproterenol stimulation (3T3-L1 adipocytes [2]; amlexanox pretreatment, 100 μg/ml poly (I:C) 24 hr, less than with TNFα) | isoproterenol- and forskolin-stimulated cAMP production (3T3-L1 adipocytes [1]; TNFα for 24 hr (100 ng/ml), 10 μM ISO or 50 μM FSK) | increase in cAMP produced by forskolin treatment (3T3-L1 adipocytes [1]; short-term treatment with TNFα) | isoproterenol-stimulated β-adrenergic signaling (phosphorylation of HSL, perilipin, PKA substrate motif proteins) (3T3-L1 adipocytes [2]; TNFα for 24 hr, 10 μM ISO)
1 | CC(C)c1ccc2oc3nc(N)c(C(=O)O)cc3c(=O)c2c1 [amlexanox, 2-amino-7-isopropyl-1-azaxanthone-3-carboxylic acid; 2-amino-7-isopropyl-5-oxo-5H-chromeno[2,3-b]pyridine-3-carboxylic acid] | largely rescued | blocked the inhibitory effect of TNFα | dramatically augmented | partially restored |  |  | 
2 | TNFα |  |  |  |  | inhibited the production of the second messenger; also recorded: decreased isoproterenol- and forskolin-stimulated cAMP production | augmented | decreased
